Measured values from patent publication US20210348107A1, “DEVICE AND SYSTEMS COMPRISING ELECTRODE ARRAYS FOR ELECTROCONDUCTIVE CELLS” (UNIVERSITY OF WASHINGTON, priority 2018, published 2021).

Experiments:
[1] = tested on: nerve terminal; settings: cited from earlier work
[2] = tested on: neurons; settings: following spinal cord, head injury, and cerebral ischemia; by blocking excitotoxicity; cited from earlier work
[3] = tested on: human cells; settings: cited from earlier work
[4] = tested on: ALS patients; settings: cited from earlier work
[5] = tested on: CMT2 neurons; assay: Acetylated α-tubulin levels in CMT2 neurons after HDAC6 inhibitor treatment; assay type: cell-based, human; settings: data not shown
Description: Treatment with this compound was also found to improve both the absolute velocity and the total number of moving axonal mitochondria. Decreased acetylated α-tubulin abundance is a characteristic feature of CMT2, and has been directly linked to severe axonal transport deficits in mouse models of the disease. […] The NMJ platform constitutes the ideal model for performing assessment of whether the reported changes result in restoration of WT NMJ phenotypes. Furthermore, the establishment of methods for screening compound action using this platform is translatable to other drug candidates and models of other neuropathic disease states.

[6] = tested on: CMT2 neurons; assay: Live cell imaging of mitochondrial transport along axons of CMT2 iPSC motor neurons; assay type: cell-based, human
Experimental: Mitochondrial transport along axons is evaluated using live cell imaging of cultured neurons. Cells are infected with a lentiviral vector expressing mitochondrially targeted fluorescent probe dsRed (mito-dsRed) permitting real-time assessment of mitochondrial movement. Cells are placed within an environmental chamber mounted on an epifluorescent microscope and mitochondrial movement is recorded for 10 minutes with 3-second time-lapse intervals. Image analysis is performed with ImageJ, and Matlab code can be used, for example, to calculate mitochondrial velocity by measuring the distance between the position of individual mitochondria at the start and end of time-lapse recordings and dividing by the time elapsed. This provides a measure of overall transport velocity that includes anterograde and retrograde movements and stationary periods. Mitochondria are then classified as motile (velocity >0.1 μm s-1) or stationary (velocity ≤0.1 μm s-1), in line with disclosed methods (see e.g., Saporta et al. Experimental neurology. 2015; 263:190-9). Immunostaining is used to quantify mitochondrial density within the developing growth cone of cultured neurons as a means to evaluate the effect of altered transport on presynaptic development. To account for time dependent maturation, neurons are evaluated for all end-points following 1, 2, 3, and 4 weeks in culture. […]

Nc1ccncc1N [3,4-diaminopyridine]
acetylcholine release from the nerve terminal [1]: enhances
conduction in unmyelinated nerves [1]: improves

Cc1cccc(C)c1OCC(C)N (centres unmarked) [Mexiletine]
protection of neurons [2]: protective of neurons

O=C(NCCO[N+](=O)[O-])c1cccnc1 [Nicorandil]
mitochondrial production of reactive oxygen species (ROS) [3]: limit mitochondrial production of reactive oxygen species

Nc1nc2ccc(OC(F)(F)F)cc2s1 [Riluzole]
prolongation of life [4]: prolonging life by a few months

CN1CCc2c(c3ccccc3n2Cc2ccc(C(=O)NO)cc2)C1 [Tubastatin A]
levels of acetylated α-tubulin [5]: significantly improved
absolute velocity of moving axonal mitochondria [6]: improve
total number of moving axonal mitochondria [6]: improve
